Assay [1] concerns the target T1, E2F1 (Homo sapiens, UniProt Q01094).
T1 construct: made in house; host or cells: Sf-9 insect cells infected with baculovirus
Put plainly: Non-STAT protein added to activated Stat3 before EMSA (titration of compound). It counts as binding.

The subject of assay [2] is DU145. The assay is described as follows: TUNEL analysis of apoptosis. It counts as cell-based, human. Particulars: 48 h. An excerpt: (§1) FIGS. 7A-7C. TUNEL analysis of PLATINUM-401-mediated apoptosis. (FIG. 7A) Normal NIH3T3 fibroblasts and their v-Src-transformed counterparts (NIH3T3/v-Src), human breast carcinoma cell lines (MDA-MB-453, MDA-MB-435, MDA-MB-468, and MDA-MB-231), human non-small cell lung cancer cell line (A549), human prostate cancer cell line (DU145), multiple myeloma 5TGM1 (mouse) and U266 (human) cell lines, mouse melanoma cell line (B16) and human pancreatic cancer cell line (Panc1) were all treated with or without PLATINUM-401 for 48 h and analyzed by TUNEL for DNA damage. For each cell line, the activated Stat3 status is indicated as (−), no constitutively-active Stat3 and (+), constitutively-active Stat3 (see FIG. 5A). Data are representative of 3 independent determinations; (FIG. 7B) Human breast cancer cell lines (MDA-MB-453, MDA-MB-468 and MDA-MB-435) were transfected with or without Stat3β or Stat3 antisense (Stat3AS), or were treated with or without Stat3 peptidomimetic inhibitor, ISS 610 (1 mM) or PLATINUM-401 (5 μM)). Forty-eight hours afterwards, cells were harvested and processed for TUNEL analysis; (FIG. 7C) The viral Src-transformed NIH3T3/v-Src fibroblasts were transfected with or without wild-type Stat3 (pRc/CMV Stat3 Flag) and treated with or without 5 μM PLATINUM-401 for 36 h. Cells were subsequently harvested for nuclear extracts preparation and Stat3 DNA-binding assay in vitro with EMSA analysis (left panel), or were processed for TUNEL analysis (right panel).
(§2) Cell proliferation and TUNEL assays—Proliferating cells were first treated with or without PLATINUM-401 for up to 48 h. A portion of cells were harvested for BrdU incorporation following the manufacturer's (BD Biosciences Pharmingen, San Diego, Calif.) instructions and analyzed by flow cytometry. Harvested cells were also analyzed for apoptosis via detection of TdT-mediated dUTP nick-end labeling (TUNEL) assay using Apoptosis Detection Systems Fluorescein according to the manufacturer's (Roche, Indianapolis, Ind.) instructions. Oligonucleotides and plasmids Transfections. The Stat3 antisense (5′-[…]-3′) (SEQ ID NO:3) or control mismatch oligonucleotides (5′-[…]-3′) (SEQ ID NO:4) were synthesized using phosphorothioate chemistry and were synthesized with 2′-Omethoxyethyl modification of the five terminal nucleotides (underlined; (Mora et al., 2002; Karras et al., 2000)) to increase stability. Transfections of Stat3AS and plasmids were carried out with Lipofectamine 2000 (LF) according to the manufacturer's instructions (Invitrogen, Carlsbad, Calif.). Briefly, cells were seeded at 1-2×10^6 cells/10-cm tissue-culture plates 18 h before transfection. Immediately before transfection, cells were washed once with PBS. Cells were transfected with luciferase reporters (4 μg) in the presence or absence of v-Src (4 μg), or were transfected with Stat3β (4 μg) or pRC/CMV Stat3 Flag (4 μg). Stat3AS transfections were carried out LF alone, or with LF/Stat3 antisense oligonucleotides, or LF/Stat3 mismatch oligonucleotides (final concentration of the oligonucleotides was 250 nM). After 2-3 h, the transfection medium was aspirated and cells washed with PBS before fresh medium added containing 10% FBS was added.
Cells were analyzed for DNA-strand breaks by TUNEL staining. […] The incidence of apoptosis correlated with the prevalence of constitutively-active Stat3 in malignant cells (FIG. 7, lower panel). Moreover, the incidence of apoptosis by PLATINUM-401 in breast cancer cell lines (MDA-MB-468 and MDA-MB-435) harboring constitutively-active Stat3 compares favorably to that induced by other previously investigated Stat3 inhibitory approaches, such as Stat3β (Garcia et al., 2001), Stat3 antisense (Stat3AS) (Mora et al., 2002), peptidomimetic inhibitor of Stat3 (ISS 610) (FIG. 7B) (Turkson et al., 2004c), and contrasts with the absence of apoptosis in breast cancer cell line, MDA-MB-453 that lacks constitutively-active Stat3. […]

Assay [3] concerns normal NIH 3T3 fibroblasts. Put plainly: Ki67 proliferation index by immunohistochemistry. It is filed as cell-based, mouse. The conditions noted are these: no persistent Stat3 activity. As for the experimental part:
FIGS. 5A and 5B. Evaluation for effects of PLATINUM-401 on cellular constitutive Stat3 activation and cell proliferation. Normal or malignant cells were treated with or without PLATINUM-401 and nuclear extracts were prepared for Stat3 DNA-binding activity assay with hSIE probe, or cells were processed for nuclear Ki67 immunohistochemistry. (FIG. 5A) EMSA analysis of Stat3 DNA-binding activity; (FIG. 5B) Graphical representations of quantified nuclear staining of Ki-67 proliferation index. Stat3:Stat3-DNA complexes in gels are labeled. The Ki-67 proliferation indexes were calculated as the percent positive tumor cells relative to the total number of cells. […]
Immunohistochemistry—The indirect peroxidase-antiperoxidase test was performed on cytospins prepared from cell lines (control and treated). […] The presence of Ki-67 nuclear staining was calculated as percent positive tumor cells in relation to the total number of cells.
The inventors further examined the biological effects of PLATINUM-401 and determined whether any changes might correlate with the inhibition of constitutively-active Stat3. […]
Changes in cell proliferation induced by treatment with PLATINUM-401 were assayed in terms of Ki67 proliferation index by immunohistochemistry. The presence of Ki-67 nuclear staining was calculated as the percent positive tumor cells in relation to the total number of cells.

Assay [4] concerns NIH3T3/v-Src. The assay is described as follows: TUNEL analysis of apoptosis. It counts as cell-based, mouse.
Excerpt: as §1, §2
(§3) Cells were analyzed for DNA-strand breaks by TUNEL staining. […] The incidence of apoptosis correlated with the prevalence of constitutively-active Stat3 in malignant cells (FIG. 7, lower panel). […]

In assay [5] the test system is 5TGM1. Put plainly: TUNEL analysis of apoptosis. It is filed as cell-based, mouse. The conditions noted are these: 48 h.
Excerpt: as §1, §2, §3

In assay [6] the test system is B16. The assay is described as follows: TUNEL analysis of apoptosis. It is filed as cell-based, mouse. Particulars: 48 h.
Excerpt: as §1, §2, §3

Assay [7] relates to NIH3T3. Put plainly: TUNEL analysis of apoptosis. The conditions noted are these: 48 h, no aberrant Stat3 activity. It counts as cell-based, mouse.
Excerpt: as §1, §2, §3

T1 sequence (Q01094 whole entry, species assumed): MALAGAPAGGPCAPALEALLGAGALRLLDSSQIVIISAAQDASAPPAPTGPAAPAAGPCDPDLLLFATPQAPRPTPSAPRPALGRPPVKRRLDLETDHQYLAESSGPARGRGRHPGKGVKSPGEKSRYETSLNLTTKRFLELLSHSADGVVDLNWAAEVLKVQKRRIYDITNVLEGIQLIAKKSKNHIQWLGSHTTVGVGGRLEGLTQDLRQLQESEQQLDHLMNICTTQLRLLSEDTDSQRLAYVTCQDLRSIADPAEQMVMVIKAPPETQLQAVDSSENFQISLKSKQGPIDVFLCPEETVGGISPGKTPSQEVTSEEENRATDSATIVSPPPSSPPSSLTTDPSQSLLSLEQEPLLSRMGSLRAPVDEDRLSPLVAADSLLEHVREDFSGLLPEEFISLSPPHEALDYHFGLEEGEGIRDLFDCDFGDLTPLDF

In the case of `CC(O)CN1CCN(CC(C)O)CC1` (centres unmarked) [PLATINUM-401], the “influence of E2F1 protein on compound's effect on Stat3 DNA-binding activity” value in assay [1] is reported as “failed to significantly influence”. In addition, the TUNEL staining entry in assay [2] was “Significant TUNEL staining”; in assay [4] (48 h), “Significant TUNEL staining”; in assay [5] it was “Significant TUNEL staining”; in assay [6], “Significant TUNEL staining”; in assay [7], “no TUNEL staining”. In addition, in assay [3], the “proliferation (Ki67 index)” value is given as “lack of effect”. The “compound-mediated apoptosis on overexpression of Stat3” value in assay [4] (NIH3T3/v-Src transfected with wild-type Stat3, 5 μM, 36 h) is recorded as “minimizes the extent”.

Source of the values: US11571418B2, “Platinum compounds that inhibit constitutive STAT3 signaling and induce cell cycle arrest and apoptosis of malignant cells” (H. LEE MOFFITT CANCER CENTER AND RESEARCH INSTITUTE, INC., priority 2011, dated 2023).
